# Results reported in ChEMBL document CHEMBL3861981 (J Med Chem, 2016).
# Assays:
# [1] = Inhibition of recombinant full length HCV genotype 1b J4L6S NS3/4A protease preincubated for 30 mins followed by substrate addition measured by FRET assay; design: species or system Hepatitis C virus subtype 1b
# [2] = Half life in cynomolgus monkey plasma at 3 mg/kg, iv administered as 5 mins infusion by LC/MS/MS analysis; assay type: ADME, organism-based, Macaca fascicularis
# [3] = Toxicity in dog at 20 to 200 mg/kg administered as single dose; assay type: organism-based, Canis lupus familiaris; settings: in vivo
# [4] = AUC in Beagle dog plasma at 3 mg/kg administered via oral gavage measured up to 24 hrs post dose by LC/MS/MS analysis; assay type: ADME, organism-based, Canis lupus familiaris; design: dose 3 mg/kg, time < 24 hr, route oral
# [5] = Cardiotoxicity in rabbit heart assessed as change in heart rate at 10 uM perfused for 60 mins measured every 10 mins during perfusion by electrophysiology method relative to control; assay type: toxicity, tissue-based, Oryctolagus cuniculus; settings: 1 h
# [6] = Inhibition of recombinant full length HCV genotype 2a HC-J6 NS3/4A protease preincubated for 30 mins followed by substrate addition measured by FRET assay; design: species or system Hepatitis C virus subtype 2a
# [7] = Inhibition of recombinant full length HCV genotype 2b HC-J8 NS3 protease in genotype 2a replicon cells by luciferase reporter gene assay; assay type: cell-based, Hepatitis C virus subtype 2b; settings: Hepatitis C virus
# [8] = Oral bioavailability in cannulated Sprague-Dawley rat plasma at 15 mg/kg administered via gavage measured up to 24 hrs post dose by LC/MS/MS analysis; assay type: ADME, organism-based
# [9] = Plasma concentration in rabbit at 30 mg/kg, iv administered as 10 mins infusion measured after 60 mins; assay type: ADME, organism-based, Oryctolagus cuniculus
# [10] = Cytotoxicity against human HuH7 cells assessed as decrease in cell viability
# [11] = Clearance in Beagle dog plasma at 1 mg/kg, iv administered as 5 mins infusion measured up to 24 hrs post dose by LC/MS/MS analysis; assay type: ADME, organism-based, Canis lupus familiaris
# [12] = system: Salmonella typhimurium; test: Genotoxicity in Salmonella typhimurium in absence of S9 fraction by Ames test; assay type: toxicity, organism-based; settings: salmonella enterica subsp. enterica serovar typhimurium
# [13] = Cardiotoxicity in anesthetized rabbit assessed as prolongation of QTcv interval at 30 mg/kg, iv administered as 10 mins infusion by electrophysiology assay; assay type: toxicity, organism-based, Oryctolagus cuniculus; settings: in vivo
# [14] = Cardiotoxicity in rabbit heart assessed as change in sinoatrial node recovery time at 10 uM perfused for 60 mins measured every 10 mins during perfusion by electrophysiology method relative to control; assay type: toxicity, tissue-based, Oryctolagus cuniculus; settings: 1 h
smiles,measurement,setting,value
COc1cnc(O[C@@H]2C[C@@H](C(=O)N[C@]3(C(=O)NS(=O)(=O)C4CC4)C[C@H]3C3CC3)N(C(=O)[C@@H](NC(=O)O[C@H](C)C(F)(F)F)C3CCCCC3)C2)c2cc(Cl)ccc12,IC50,[1],1.6 nM
same,half-life,[2],366 min
same,Activity,[3],Non-Toxic
same,AUC at 24 h,[4],8.3 µM·h
same,Activity,[5],-16%
same,IC50,[6],38 nM
same,EC50,[7],562 nM
same,bioavailability,[8],86.4%
same,concentration at 1 h,[9],253 µM
same,CC50,[10],8 to 14 µM
same,clearance,[11],4.3 mL/min/kg
same,Activity,[12],Non-Toxic
same,Activity,[13],Non-Toxic
same,Activity,[14],22%
